17 molecules from PubChem BioAssay AID328 (DTP/NCI, 2004) can be followed below.

This assay deals with BDF1 mice, P388 leukemia ip, median survival T/C. As to the kind of experiment: NCI In Vivo Anticancer Drug Screen. Data for tumor model P388 Leukemia (intraperitoneal) in B6D2F1 (BDF1) mice. The conditions noted are these: endpoint: median survival time, higher = longer survival. In a few lines:
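Vehicle-dosed animals serve as the reference; survival of compound-dosed, tumour-implanted mice is divided by it.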

Setting [1] is: dose: 50.0 mg/kg/injection, schedule: Q01DX009 (ip), vehicle: Klucel (hydroxypropylcellulose) (HPC).
Where [2] appears, read: dose: 25.0 mg/kg/injection, schedule: Q01DX009 (ip), vehicle: saline.
Setting [3] is: dose: 50.0 mg/kg/injection, schedule: Q01DX009 (ip), vehicle: saline.
Where [4] appears, read: dose: 50.0 mg/kg/injection, schedule: Q04DX003 (ip), vehicle: saline.
The mark [5] stands for this setting: dose: 100.0 mg/kg/injection, schedule: Q01DX009 (ip), vehicle: saline.
Setting [6] is: dose: 200.0 mg/kg/injection, schedule: Q01DX009 (ip), vehicle: saline.
The mark [7] stands for this setting: dose: 400.0 mg/kg/injection, schedule: Q01DX009 (ip), vehicle: saline.
Where [8] appears, read: dose: 6.25 mg/kg/injection, schedule: Q01DX009 (ip), vehicle: saline.
Setting [9] is: dose: 12.5 mg/kg/injection, schedule: Q01DX009 (ip), vehicle: saline.
The mark [10] stands for this setting: dose: 25.0 mg/kg/injection, schedule: Q01DX009 (ip), vehicle: saline with Tween-80.
Setting [11] is: dose: 25.0 mg/kg/injection, schedule: Q04DX003 (ip), vehicle: Klucel (hydroxypropylcellulose) (HPC).
The mark [12] stands for this setting: dose: 50.0 mg/kg/injection, schedule: Q04DX003 (ip), vehicle: Klucel (hydroxypropylcellulose) (HPC).
[13] abbreviates: dose: 100.0 mg/kg/injection, schedule: Q01DX009 (ip), vehicle: saline with Tween-80.
The mark [14] stands for this setting: dose: 12.5 mg/kg/injection, schedule: Q01DX009 (ip), vehicle: saline with Tween-80.
The mark [15] stands for this setting: dose: 50.0 mg/kg/injection, schedule: Q01DX009 (ip), vehicle: saline with Tween-80.

SMILES strings stand for the structures. Values joined by “and” are separate entries in the source; they are usually repeats but may differ in a detail not shown here. Equal entries are not always repeated. Inconclusive results and toxic doses are left out.

With `NC(CSCc1ccc(N(CCCl)CCCl)cc1)C(=O)O` (stereo not given), the T/C is 95 % of control (dose: 1.2 mg/kg/injection, schedule: Q04DX003 (ip), vehicle: Klucel (hydroxypropylcellulose) (HPC)); 154 % of control (dose: 2.6 mg/kg/injection, schedule: Q04DX003 (ip), vehicle: Klucel (hydroxypropylcellulose) (HPC)); 183 % of control (dose: 4.0 mg/kg/injection, schedule: Q01DX009 (ip), vehicle: saline with Tween-80); 206 % of control (dose: 6.0 mg/kg/injection, schedule: Q01DX009 (ip), vehicle: saline with Tween-80); 154 % of control (dose: 6.0 mg/kg/injection, schedule: Q04DX003 (ip), vehicle: Klucel (hydroxypropylcellulose) (HPC)); 223 % of control (dose: 9.0 mg/kg/injection, schedule: Q01DX009 (ip), vehicle: saline with Tween-80). The T/C by setting is: (dose: 13.0 mg/kg/injection, schedule: Q04DX003 (ip), vehicle: Klucel (hydroxypropylcellulose) (HPC)) 190 % of control; (dose: 20.0 mg/kg/injection, schedule: Q04DX003 (ip), vehicle: Klucel (hydroxypropylcellulose) (HPC)) 204 % of control; (dose: 22.0 mg/kg/injection, schedule: Q01DX009 (ip), vehicle: Klucel (hydroxypropylcellulose) (HPC)) 272 % of control; (dose: 30.0 mg/kg/injection, schedule: Q04DX003 (ip), vehicle: Klucel (hydroxypropylcellulose) (HPC)) 238 % of control and 272 % of control; (dose: 33.0 mg/kg/injection, schedule: Q01DX009 (ip), vehicle: Klucel (hydroxypropylcellulose) (HPC)) 231 % of control; (dose: 44.0 mg/kg/injection, schedule: Q04DX003 (ip), vehicle: Klucel (hydroxypropylcellulose) (HPC)) 238 % of control. The T/C is 240 % of control and 250 % of control under setting [1]; 235 % of control and 223 % of control (dose: 67.0 mg/kg/injection, schedule: Q04DX003 (ip), vehicle: Klucel (hydroxypropylcellulose) (HPC)); 104 % of control (dose: 75.0 mg/kg/injection, schedule: Q01DX009 (ip), vehicle: Klucel (hydroxypropylcellulose) (HPC)); 220 % of control (dose: 100.0 mg/kg/injection, schedule: Q04DX003 (ip), vehicle: Klucel (hydroxypropylcellulose) (HPC)); 160 % of control (dose: 150.0 mg/kg/injection, schedule: Q04DX003 (ip), vehicle: Klucel (hydroxypropylcellulose) (HPC)).

As for `CCCCC(CC)C(=O)[O][Sn]([CH2]CCC)([CH2]CCC)[O]C(=O)C(CC)CCCC` (stereo not given), the T/C runs as follows: (dose: 6.25 mg/kg/injection, schedule: Q04DX003 (ip), vehicle: acetone) 91 % of control; (dose: 12.5 mg/kg/injection, schedule: Q04DX003 (ip), vehicle: acetone) 95 % of control.

As for `CC(=O)OCC(=O)C1CCC=CC1OC(C)=O` (stereo not given), the T/C by setting is: under setting [2], 92 % of control; under setting [3], 104 % of control; under setting [4], 95 % of control; under setting [5], 98 % of control; (dose: 100.0 mg/kg/injection, schedule: Q04DX003 (ip), vehicle: saline) 101 % of control; under setting [6], 104 % of control. In addition, the T/C (dose: 200.0 mg/kg/injection, schedule: Q04DX003 (ip), vehicle: saline) is 98 % of control and 120 % of control; the T/C under setting [7] is 88 % of control; the T/C (dose: 400.0 mg/kg/injection, schedule: Q04DX003 (ip), vehicle: saline) is 93 % of control and 117 % of control.

For `CCC(O)(c1ccc(OC)cc1)C(c1ccccc1)c1ccccn1` (stereo not given), the T/C (dose: 31.25 mg/kg/injection, schedule: Q01DX009 (ip), vehicle: saline with Tween-80) is 103 % of control; the T/C (dose: 62.5 mg/kg/injection, schedule: Q01DX009 (ip), vehicle: saline with Tween-80) is 103 % of control; the T/C (dose: 125.0 mg/kg/injection, schedule: Q01DX009 (ip), vehicle: saline with Tween-80) was 100 % of control.

As for `CC(=O)c1c(C)cc(C(C)(C)C)cc1C`, the T/C by setting is: under setting [5], 109 % of control; under setting [6], 100 % of control; under setting [7], 109 % of control.

Take `CC(CN(C)C)CN1c2ccccc2Sc2ccccc21` (stereo not given): the T/C is, setting by setting: under setting [8], 100 % of control; (dose: 6.25 mg/kg/injection, schedule: Q04DX003 (ip), vehicle: saline) 100 % of control; under setting [9], 108 % of control and 90 % of control; (dose: 12.5 mg/kg/injection, schedule: Q04DX003 (ip), vehicle: Klucel (hydroxypropylcellulose) (HPC)) 100 % of control; (dose: 12.5 mg/kg/injection, schedule: Q04DX003 (ip), vehicle: saline with Tween-80) 110 % of control; (dose: 12.5 mg/kg/injection, schedule: Q04DX003 (ip), vehicle: saline) 108 % of control. In addition, the T/C under setting [10] was 109 % of control; the T/C under setting [2] is 112 % of control and 109 % of control; the T/C under setting [11] is 124 % of control; the T/C (dose: 25.0 mg/kg/injection, schedule: Q04DX003 (ip), vehicle: saline) was 108 % of control; the T/C under setting [3] was 108 % of control; the T/C under setting [12] is 124 % of control. The T/C was 89 % of control (dose: 50.0 mg/kg/injection, schedule: Q04DX003 (ip), vehicle: saline with Tween-80) and 120 % of control under setting [4].

Regarding `CC1(C)SC2C(NC(=O)Cc3ccccc3)C(=O)N2C1C(=O)O` (stereo not given), the T/C is, setting by setting: under setting [5], 90 % of control; under setting [7], 100 % of control.

For the molecule `COC(=O)C(Br)C(Br)c1ccccc1` (stereo not given), the T/C reads like this: under setting [13], 113 % of control; (dose: 400.0 mg/kg/injection, schedule: Q01DX009 (ip), vehicle: saline with Tween-80) 118 % of control.

Consider `C=C1N(c2nc(Cl)nc(Cl)n2)c2ccccc2C1(C)C`, for which the T/C under setting [14] is 109 % of control and 111 % of control; the T/C under setting [10] was 108 % of control and 112 % of control; the T/C under setting [15] is 116 % of control.

Turning to `NC(=S)N=Nc1ccc(O)c2c(O)ccc(O)c12`, the T/C was 96 % of control (dose: 6.3 mg/kg/injection, schedule: Q01DX009 (ip), vehicle: water); 94 % of control (dose: 12.5 mg/kg/injection, schedule: Q01DX009 (ip), vehicle: water); 92 % of control (dose: 25.0 mg/kg/injection, schedule: Q01DX009 (ip), vehicle: water); 86 % of control (dose: 50.0 mg/kg/injection, schedule: Q01DX009 (ip), vehicle: water).

As to `Oc1ccccc1C=Nc1ccccc1.Oc1ccccc1C=Nc1ccccc1.[Ni+2]`, the T/C runs as follows: (dose: 25.0 mg/kg/injection, schedule: Q04DX003 (ip), vehicle: saline sonified) 100 % of control; (dose: 50.0 mg/kg/injection, schedule: Q04DX003 (ip), vehicle: saline sonified) 113 % of control.

For `Nc1ncc(CNc2ccc(C(=O)NC(CCC(=O)O)C(=O)O)cc2)c(N)n1` (stereo not given), the T/C was 89 % of control and 115 % of control under setting [1]; 150 % of control (dose: 200.0 mg/kg/injection, schedule: Q01DX009 (ip), vehicle: Klucel (hydroxypropylcellulose) (HPC)).

As to `COc1ccc(CCC(C(=O)O)c2ccc(OC)c(OC)c2)cc1OC` (stereo not given), the T/C (dose: 45.0 mg/kg/injection, schedule: Q01DX009 (ip), vehicle: Klucel (hydroxypropylcellulose) (HPC)) is 95 % of control; the T/C (dose: 65.0 mg/kg/injection, schedule: Q01DX009 (ip), vehicle: Klucel (hydroxypropylcellulose) (HPC)) is 90 % of control; the T/C (dose: 100.0 mg/kg/injection, schedule: Q01DX009 (ip), vehicle: Klucel (hydroxypropylcellulose) (HPC)) is 95 % of control; the T/C (dose: 150.0 mg/kg/injection, schedule: Q01DX009 (ip), vehicle: Klucel (hydroxypropylcellulose) (HPC)) is 90 % of control.

For `O=C1NN=C(c2ccc(Cl)cc2)CS1`, the T/C under setting [15] is 103 % of control and the T/C under setting [13] was 103 % of control.

With `CN(C)C1CCCCC1`, the T/C under setting [11] is 91 % of control and the T/C under setting [12] is 95 % of control.

For `C/C(=N/N(C)C)c1ccc([N+](=O)[O-])cc1`, the T/C is 87 % of control under setting [8], 91 % of control under setting [9], 100 % of control under setting [2] and 109 % of control under setting [1].

Consider `COc1cccc2c(Cl)c(CCl)c(C)nc12`, for which the T/C is 94 % of control (dose: 6.25 mg/kg/injection, schedule: Q01DX009 (ip), vehicle: saline with Tween-80); 110 % of control under setting [14]; 103 % of control under setting [10]; 103 % of control under setting [15]; 103 % of control under setting [13].
